{"source": "patent US11602551B2", "about": "“Use of inosine for the treatment of t-reg deficiency” (BioGaia AB, priority 2016, dated 2023)", "system": "Splenic lymphocytes", "assay": "Lymphocyte proliferation test (XTT)", "format": "cell-based, mice", "procedure": "Splenic lymphocytes were split into 96-well plates at an initial density of 2×10^4 cells per well and were incubated with different doses of inosine under control, 40 μg/ml of LPS or 10 μg/ml of PHA condition, respectively. After 96 h, cell viability was measured by TACS XTT cell proliferation assay kit (Trevigen, Inc. Gaithersburg, Md.).", "data": [{"smiles": "O=c1[nH]cnc2c1ncn2[C@@H]1O[C@H](CO)[C@@H](O)[C@H]1O", "note": "[inosine]", "values": [{"measurement": "proliferation of PHA-stimulated T-lymphocytes", "setting": "96 h treatment, 10 μg/ml of PHA", "result": "does not inhibit"}, {"measurement": "proliferation of LPS-stimulated B-lymphocytes", "setting": "96 h treatment, 40 μg/ml of LPS", "result": "does not inhibit"}, {"measurement": "proliferation of lymphocytes in vitro", "setting": "different doses of inosine, 96 h", "result": "did not inhibit"}]}]}
